Source: the supplement of paper PMC10307832

Key:
Assay in all cases: relative viability (nuclei count vs DMSO), 5 days (fraction); higher = more cells survive
[1] = compound: CC(=O)O[C@@]12CO[C@@H]1C[C@H](O)[C@@]1(C)C(=O)[C@H](O)C3=C(C)[C@@H](OC(=O)[C@H](O)[C@@H](NC(=O)OC(C)(C)C)c4ccccc4)C[C@@](O)([C@@H](OC(=O)c4ccccc4)[C@H]21)C3(C)C [Docetaxel]
Procedure, shortened: (§1)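 For viability, nuclei in each treated well were divided by nuclei in vehicle wells and the median across plates was taken. Lung cancer cell lines in 1536-well plates were pinned with five library-drug doses (not always all listed) spaced by √10, cultured 5 days without medium change, and imaged at 4× after Hoechst staining, with plates passing only at control CV below 25% and at least one doubling.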

[2] = compound: COc1cc2nccc(Oc3ccc(NC(=O)Nc4cc(C)on4)c(Cl)c3)c2cc1OC [Tivozanib]
Procedure, shortened: as §1

[3] = compound: Cc1cnc(-c2cnc(NCCNc3ccc(C#N)cn3)nc2-c2ccc(Cl)cc2Cl)[nH]1
Procedure, shortened: as §1

[4] = compound: Cc1sc2c(c1C)C(c1ccc(Cl)cc1)=N[C@@H](CC(=O)OC(C)(C)C)c1nnc(C)n1-2 [JQ1]
Procedure, shortened: as §1

[5] = compound: Nc1ccn([C@@H]2O[C@H](CO)[C@@H](O)[C@@H]2O)c(=O)n1 [Cytarabine]
Procedure, shortened: as §1

[6] = compound: O=C(O)CCCCC(CCSCc1ccccc1)SCc1ccccc1 [CPI-613]
Procedure, shortened: as §1

[7] = compound: O=c1[nH]c2ccccc2n1C1CCN(CCCC(c2ccc(F)cc2)c2ccc(F)cc2)CC1 [Pimozide]
Procedure, shortened: as §1

Cell Line	relative viability ([1]; 0.0002 µM)	relative viability ([1]; 0.000632 µM)	relative viability ([1]; 0.002 µM)	relative viability ([1]; 0.006325 µM)	relative viability ([1]; 0.02 µM)	relative viability ([2]; 0.005 µM)	relative viability ([2]; 0.01581 µM)	relative viability ([2]; 0.05 µM)	relative viability ([2]; 0.1581 µM)	relative viability ([2]; 0.5 µM)	relative viability ([3]; 0.08 µM)	relative viability ([3]; 0.253 µM)	relative viability ([3]; 0.8 µM)	relative viability ([3]; 2.53 µM)	relative viability ([4]; 0.04 µM)	relative viability ([4]; 0.1265 µM)	relative viability ([4]; 0.4 µM)	relative viability ([4]; 1.265 µM)	relative viability ([4]; 4 µM)	relative viability ([5]; 0.005 µM)	relative viability ([5]; 0.01581 µM)	relative viability ([5]; 0.05 µM)	relative viability ([5]; 0.1581 µM)	relative viability ([5]; 0.5 µM)	relative viability ([6]; 5 µM)	relative viability ([6]; 15.81 µM)	relative viability ([6]; 50 µM)	relative viability ([6]; 158.11 µM)	relative viability ([6]; 500 µM)	relative viability ([7]; 0.08 µM)	relative viability ([7]; 0.253 µM)	relative viability ([7]; 0.8 µM)	relative viability ([7]; 2.53 µM)	relative viability ([7]; 8 µM)
LXF-289	1	0.731	0.473	0.171	0.128	0.998	0.935	0.996	1.1	0.956	1.01	0.864	1.06	1.1	0.984	0.965	0.981	0.936	0.671	0.93	1	0.883	0.563	0.305	0.922	0.958	0.992	0.78	0.0678	0.963	1	0.917	0.998	0.923
NCI-H522	0.927	0.727	0.689	0.579	0.389	0.961	1.21	0.925	0.802	0.787	1.07	1.01	1.02	0.873	0.957	0.915	0.793	0.457	0.425	0.868	0.878	0.762	0.566	0.53	0.864	0.944	1.09	0.921	0.53	0.93	0.885	0.868	0.893	0.906
NCI-H358	0.768	0.463	0.251	0.209	0.138	0.898	0.944	1.1	0.915	1.01	0.97	0.818	0.822	0.796	0.982	0.976	0.941	0.638	0.461	0.912	0.757	0.509	0.2	0.161	0.876	0.949	0.901	0.495	0.038	0.796	1.02	0.876	0.943	0.925
NCI-H1650	0.705	0.37	0.301	0.205	0.146	0.786	0.964	0.941	0.946	0.779	1	0.812	0.904	0.761	0.808	0.68	0.578	0.217	0.21	0.793	0.633	0.514	0.224	0.225	0.877	0.776	0.942	0.137	0.0508	0.719	0.893	0.883	0.887	0.809
NCI-H3122	0.981	0.839	0.731	0.184	0.12	0.961	1.03	1.01	1.12	1.02	0.962	–	0.988	0.965	0.962	0.791	0.96	0.857	0.518	0.99	0.928	0.971	0.553	0.399	0.969	1.01	1.02	0.956	0.146	0.983	1.02	0.948	0.962	1.03
